Results published in patent publication US12172965B2, “Drug conjugate comprising quinoline derivatives” (UNIVERSITE PARIS-SACLAY, priority 2018, dated 2024).
pIC50: −log10 of the molar value. Like-named read-outs stand apart in the source and are kept apart here. Values belong to the compound of their own block, whether it stands above or below them. Non-standard residues stand in square brackets, D forms with d. Residues, ends and D or L forms follow the SMILES beside them. *: point of attachment. Dolaproine = CO[C@@H]([C@@H]1CCCN1)[C@@H](C)C(=O)O; Dil = CC[C@H](C)[C@H](NC)[C@@H](CC(=O)O)OC; X1 = C[C@@H](N*)[C@@H](O)c1ccccc1; NMeV = CN[C@H](C(=O)O)C(C)C

Assays:
[1] = tested on: Mia-Paca-2 (pancreatic tumour); experiment: Antiproliferative activity (IC50), CellTiter Glo, Mia-Paca-2; assay type: cell-based; conditions: for pIC50: free, unconjugated, 72 hours of treatment, read-out: Mia-Paca-2 IC50
Description: (§1) The IC50 (as per accepted terminology) activities of the compounds according to the invention 4-((3-amino-4-methoxyphenyl)(methyl)amino) quinoline-2-carbonitrile (ICQN-1); 5-(5-((2-cyanoquinolin-4-yl)(methyl)amino)-2-methoxyphenyl)-N-hydroxypent-4-ynamide (ICQN-2); and (E)-3-(5-((2-cyanoquinolin-4-yl)(methyl)amino)-2-methoxyphenyl)-N-hydroxyacrylamide (ICQN-3) were compared with compounds of the prior art and with a commercial and clinical reference compound, in particular MMAE (monomethylauristatin E). The IC50 activities were measured on various different cancer cell lines HCT116 (colorectal tumour), A549 (non-small cell lung cancer), NCI-N87 (gastric tumour), Mia-Paca-2 (pancreatic tumour), K562R (chronic myeloid leukemia), SKOV3 (ovarian tumour), SKBr3 (breast tumour, Her2 overexpression), MCF7 (breast tumour) and MDA-MB231 (breast tumour).
(§2) The cancer cell lines were obtained from the American Culture Collection (ATCC, Rockville, MD) or from the German collection of microorganisms and cell cultures of the Leibniz Institute (DSMZ, Braunschweig-Germany) or from the European collection of cell cultures (ECACC, England). The cancer cell lines were cultured according to the supplier's instructions.
(§3) The A549 lung carcinoma cells, K562R myeloid leukemia cells, and the NCI-N87 gastric carcinoma cells were cultured in Gibco Roswell Park Memorial Institute (RPMI) 1640 medium supplemented with 10% foetal calf serum (FCS) and 1% glutamine. The Mia-Paca2 carcinoma cells were cultured in Gibco Dulbecco's Modified Eagle Medium (DMEM) supplemented with 10% foetal calf serum (FCS) and 1% glutamine.
(§4) The cells were counted using a Vi-cell XR (Beckman Coulter) and the cell viability was assessed by using 0.25% trypan blue dye exclusion assay. The cells were tested for the presence of mycoplasmas prior to the experiments with the Mycoplasma PCR detection kit (Applied Biological Materials Inc., Canada) according to the manufacturer's instructions, and only mycoplasma-free cells were used for the study. The cell lines were maintained at 37° C. in a humidified atmosphere containing 5% CO2.
(§5) After 24 hours of culturing, the cells were treated with the tested compounds at 10 different final concentrations. Each concentration was obtained from serial dilutions in culture medium starting from the stock solution. The control cells were treated with the carrier. The experiments were carried out in triplicate.
(§6) The measurements were performed after 72 hours of treatment using the CellTiter Glo assay (Promega) which makes it possible to measure through bioluminescence (quantification of adenosine triphosphate—ATP) the number of living cells, by using a PolarStar Omega microplate reader (BMG-Labtech).
(§7) The dose-response curves were plotted with the Graph Prism software application and the IC50 values were calculated using the Graph Prism software based on polynomial curves (four or five parameter logistic equations).

[2] = tested on: SKBr3 (breast tumour, Her2 overexpression); experiment: Antiproliferative activity (IC50), CellTiter Glo, SKBr3; assay type: cell-based, human; conditions: for pIC50: free, unconjugated, 72 hours of treatment, read-out: SKBr3 IC50
Description: as §1, §2
(§8) The HCT-116 human colorectal carcinoma, SK-BR3 breast carcinoma, and SK-OV-3 ovarian carcinoma cells were cultured in Gibco McCoy's 5A medium supplemented with 10% foetal calf serum (FCS) and 1% glutamine.
as §4, §5, §6, §7

[3] = tested on: K562R (chronic myeloid leukemia); experiment: Antiproliferative activity (IC50), CellTiter Glo, K562R; assay type: cell-based
Description: as §1, §2, §3, §4, §5, §6, §7
The K562R (chronic myeloid leukemia) cells have an MDR profile that allows them to be resistant to several chemotherapeutic compounds including the reference compound MMAE.

NCI-N87 (gastric tumour) = experiment: Antiproliferative activity (IC50), CellTiter Glo, NCI-N87; assay type: cell-based; conditions: for pIC50: free, unconjugated, 72 hours of treatment, read-out: NIC-N87 IC50
Description: as §1, §2, §3, §4, §5, §6, §7

SKOV3 (ovarian tumour) = experiment: Antiproliferative activity (IC50), CellTiter Glo, SKOV3; assay type: cell-based, human; conditions: for pIC50: free, unconjugated, 72 hours of treatment, read-out: SKOV3 IC50
Description: as §1, §2, §8, §4, §5, §6, §7

MCF7 (breast tumour) = experiment: Antiproliferative activity (IC50), CellTiter Glo, MCF7; assay type: cell-based; conditions: free, unconjugated, 72 hours of treatment, read-out: MCF7 CI50
Description: as §1, §2
(§9) The breast adenocarcinoma cells MDA-MB231 and MCF7 were cultured in Gibco RPMI 1640 culture medium supplemented with 10% foetal calf serum (FCS) and 1% glutamine.
as §4, §5, §6, §7

[4] = tested on: MDA-MB231 (breast tumour); experiment: Antiproliferative activity (IC50), CellTiter Glo, MDA-MB231; assay type: cell-based; conditions: free, unconjugated, 72 hours of treatment, read-out: MDA-MB231 CI50
Description: as §1, §2, §9, §4, §5, §6, §7

HCT116 cell line = conditions: comparison of molecules Ia and Ib; cited from earlier work
[5] = tested on: A549 (non-small cell lung cancer); experiment: Antiproliferative activity (IC50), CellTiter Glo, A549; assay type: cell-based; conditions: free, unconjugated; 72 hours of treatment; read-out: A549 IC50
Description: as §1, §2, §3, §4, §5, §6, §7

[6] = tested on: HCT116 (colorectal tumour); experiment: Antiproliferative activity (IC50), CellTiter Glo, HCT116; assay type: cell-based, human; conditions: free, unconjugated; 72 hours of treatment; read-out: HCT116 IC50
Description: as §1, §2, §8, §4, §5, §6, §7

[7] = Homo sapiens, K-562R, free, unconjugated, 72 hours of treatment, read-out: K562R IC50

pIC50 ([1]; Homo sapiens, MIA PaCa-2): 9.54
IC50 ([1]; Homo sapiens, MIA PaCa-2, nM given only in VB118 cells, read-out: Mia-Paca-2 (antiproliferative activity, Table 6)): 0.29 nM
pIC50 ([2]; Homo sapiens, SK-BR-3): 9.42
IC50 ([2]; Homo sapiens, SK-BR-3, nM given only in VB118 cells, read-out: SKBR3 (antiproliferative activity, Table 6)): 0.38 nM
pIC50 [3, 7]: 9.44
IC50 ([3]; Homo sapiens, K-562R, nM given only in VB118 cells, read-out: K562R (antiproliferative activity, Table 6)): 0.36 nM
pIC50 (NCI-N87 (gastric tumour); Homo sapiens, NCI-N87): 9.03
IC50 (NCI-N87 (gastric tumour); Homo sapiens, NCI-N87, nM given only in VB118 cells, read-out: NCI-N87 (antiproliferative activity, Table 6)): 0.93 nM
pIC50 (SKOV3 (ovarian tumour); Homo sapiens, SK-OV-3): 9.23
IC50 (SKOV3 (ovarian tumour); Homo sapiens, SK-OV-3, nM given only in VB118 cells, read-out: SKOV-3 (antiproliferative activity, Table 6)): 0.59 nM
Compound: CCOc1ccc(N(C)c2cc(C#N)nc3ccccc23)cc1N [ICQN-2, 4-((3-amino-4-ethoxyphenyl)(methyl)amino)quinoline-2-carbonitrile]

pIC50 ([3]; Homo sapiens, K-562R, resistant cancer cells, MDR profile, read-out: K562R (PgP+) IC50): 8.70
Compound: C=C(c1ccc(OC)c(N)c1)c1cc(C)nc2ccccc12 [ICQO-1, reference compound]
Ratio vs MMAE, K562R (PgP+) ([3]; resistant cancer cells, MDR profile): 17

Second part, the compound before the results:

Compound: COc1ccc(N(C)c2cc(C#N)nc3ccccc23)cc1/C=C/C(=O)NO [ICQN-3, (E)-3-(5-((2-cyanoquinolin-4-yl)(methyl)amino)-2-methoxyphenyl)-N-hydroxyacrylamide]
pIC50 ([1]; Homo sapiens, MIA PaCa-2): 9.03
pIC50 ([2]; Homo sapiens, SK-BR-3): 8.75
pIC50 [3, 7]: 9.25
pIC50 (NCI-N87 (gastric tumour); Homo sapiens, NCI-N87): 10.00
pIC50 (MCF7 (breast tumour); Homo sapiens, MCF7): 9.11
pIC50 ([4]; Homo sapiens, MDA-MB-231): 9.36
pIC50 (SKOV3 (ovarian tumour); Homo sapiens, SK-OV-3): 8.58

Compound: CN(c1ccc2c(c1)c1ccccc1n2C)c1cc(C#N)nc2ccccc12 [Ib]
drop in cytotoxic activity (factor) on replacing Me by CN at position 2 of quinoline (HCT116 cell line): 170

Compound: CC[C@H](C)[C@@H]([C@@H](CC(=O)N1CCC[C@H]1[C@H](OC)[C@@H](C)C(=O)N[C@H](C)[C@@H](O)c1ccccc1)OC)N(C)C(=O)[C@@H](NC(=O)[C@@H](NC)C(C)C)C(C)C [MMAE, monomethylauristatin E, reference compound] (H-[NMeV]V[Dil][Dolaproine]-X1)
pIC50 [1]: 8.52
pIC50 [2]: 10.22
pIC50 ([3]; free, unconjugated, 72 hours of treatment, read-out: K562R IC50): 7.71
pIC50 ([3]; resistant cancer cells, MDR profile, read-out: K562R (PgP+) IC50): 7.46
pIC50 (NCI-N87 (gastric tumour)): 8.18
pIC50 (MCF7 (breast tumour)): 9.24
pIC50 [5]: 8.39
pIC50 [4]: 8.90
pIC50 (SKOV3 (ovarian tumour)): 10.10
pIC50 [6]: 8.82
